The IC50 is the concentration that inhibits the measured activity by half.

Active and inactive are the calls of the source. No cut-off for these calls is given here.

A short description of experiment [1]: Inhibition of Saccharomyces sp. alpha-glucosidase.
Experiment [2] concerns the target T1, Oxysterols receptor LXR-alpha (Homo sapiens, UniProt Q13133).
T1 sequence (Q13133 whole entry): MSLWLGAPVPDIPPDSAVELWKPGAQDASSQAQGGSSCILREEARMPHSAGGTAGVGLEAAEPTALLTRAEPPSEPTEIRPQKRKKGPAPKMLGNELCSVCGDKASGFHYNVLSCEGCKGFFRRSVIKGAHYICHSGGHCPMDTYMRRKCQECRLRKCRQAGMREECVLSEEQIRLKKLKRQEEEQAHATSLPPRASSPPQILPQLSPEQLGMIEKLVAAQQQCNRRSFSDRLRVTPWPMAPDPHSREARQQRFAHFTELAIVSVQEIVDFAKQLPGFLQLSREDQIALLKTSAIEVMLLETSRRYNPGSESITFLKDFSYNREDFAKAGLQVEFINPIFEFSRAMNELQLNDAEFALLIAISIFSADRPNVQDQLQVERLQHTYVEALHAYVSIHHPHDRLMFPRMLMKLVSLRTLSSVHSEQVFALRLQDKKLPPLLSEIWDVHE
The experiment is described as follows: Antagonist activity at human recombinant LXRalpha expressed in HEK293 cells by luciferase reporter gene assay. The experiment is classed as functional, cell-based. (In a reporter assay the amount or activity of a reporter protein is the signal.)

The target in experiment [3] is T2, Oxysterols receptor LXR-beta (Homo sapiens, UniProt P55055).
T2 sequence (P55055 whole entry): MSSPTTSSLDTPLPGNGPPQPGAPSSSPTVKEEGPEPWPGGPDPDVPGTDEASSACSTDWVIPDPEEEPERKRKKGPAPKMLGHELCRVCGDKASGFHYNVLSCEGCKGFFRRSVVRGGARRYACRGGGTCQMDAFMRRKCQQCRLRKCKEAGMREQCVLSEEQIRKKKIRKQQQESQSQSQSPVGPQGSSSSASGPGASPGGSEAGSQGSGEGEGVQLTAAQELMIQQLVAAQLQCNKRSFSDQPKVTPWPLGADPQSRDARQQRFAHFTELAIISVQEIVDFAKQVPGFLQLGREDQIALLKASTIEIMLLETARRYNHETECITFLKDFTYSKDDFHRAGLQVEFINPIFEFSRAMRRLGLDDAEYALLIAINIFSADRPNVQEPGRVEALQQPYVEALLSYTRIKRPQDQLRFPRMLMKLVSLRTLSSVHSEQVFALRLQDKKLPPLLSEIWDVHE
The experiment is described as follows: Antagonist activity at human recombinant LXRbeta expressed in HEK293 cells by luciferase reporter gene assay. The experiment is classed as functional, cell-based.

Experiment [4] can be described thus: Agonist activity at LXR. The experiment is classed as functional.

Consider `Oc1ccc2cc1Oc1ccc(cc1)CCc1ccccc1-c1ccc(cc1O)CC2`, for which the IC50 in experiment [1] came to 8.6 µM; in experiment [2] it was 6.6 µM; in experiment [3] it was 13 µM. The outcome in experiment [4] was inactive.

Consider `OC[C@H]1NC[C@H](O)[C@@H](O)[C@@H]1O` [DUVOGLUSTAT], for which the IC50 in experiment [1] was 250 µM; in experiment [2], more than 100 µM; in experiment [3], more than 100 µM. Besides, the result in experiment [4] was inactive.

`O=C(O)Cc1cccc(OCCCN(Cc2cccc(C(F)(F)F)c2Cl)CC(c2ccccc2)c2ccccc2)c1` came in with an IC50 in experiment [1] of 4.8 µM. Besides, in experiment [4], the outcome was inactive.

In the case of `COc1cc2ccc1-c1ccccc1CCc1ccc(cc1)Oc1cccc(c1)CC2`, the figures for the 50% inhibitory concentration (IC50) in experiment [1], in experiment [2] and in experiment [3] were 67 µM, 2.5 µM and 11 µM, respectively. In experiment [4], the result was inactive.

On to `COc1ccc2c(c1)CCc1ccc(cc1)Oc1cc(ccc1OC)CCc1ccc-2cc1`, for which the IC50 in experiment [1] was found to be 40 µM; in experiment [2], 3.6 µM; in experiment [3], 26 µM. In experiment [4], the result was inactive.

`CC(C)c1cccc(C(C)C)c1N1C(=O)c2ccccc2C1=S`: the results for the IC50 in experiment [1], in experiment [2] and in experiment [3] were 8 µM, 3.1 µM and 18 µM, respectively. Besides, in experiment [4], the result was inactive.

Turning to `Oc1ccc2cc1Oc1ccc(cc1)CCc1ccccc1-c1ccc(cc1)CC2`, the half-inhibitory concentration (IC50) in experiment [1] is 15 µM; in experiment [2] it was 5.7 µM; in experiment [3], 14 µM. Moreover, the result in experiment [4] was inactive.

`Oc1ccc2c(c1)CCc1ccc(cc1)Oc1cc(ccc1O)CCc1ccc-2c(O)c1` [RICCARDI C]: the IC50 in experiment [1] is 9.9 µM; in experiment [2] it was 4.9 µM; in experiment [3], 6.6 µM. Also, the result in experiment [4] was inactive.

The molecule `CCCCCCc1ccccc1N1C(=O)c2ccccc2C1=O` had an IC50 in experiment [1] of 24.7 µM. In addition, in experiment [4], the result was inactive.

Turning to `Oc1ccc2c(c1)CCc1ccc(cc1)Oc1cc(ccc1O)CCc1ccc-2cc1`, the half-inhibitory concentration (IC50) was determined as 4.9 µM in experiment [1], 4.4 µM in experiment [2] and 7.6 µM in experiment [3]. In experiment [4], the outcome was inactive.

`Oc1cc2ccc1-c1ccccc1CCc1ccc(cc1)Oc1cccc(c1)CC2`: the half-maximal inhibitory concentration (IC50) came out at 19 µM in experiment [1], 3.2 µM in experiment [2] and 7.3 µM in experiment [3]. In addition, the outcome in experiment [4] was inactive.

Take `CC(C)CC[C@@H](O)[C@@H](C)[C@H]1CC[C@H]2[C@@H]3CC=C4C[C@@H](O)CC[C@]4(C)[C@H]3CC[C@]12C` [22(R)-HYDROXYCHOLESTEROL]: the concentration for half-maximal inhibition (IC50) in experiment [1] stood at 100 µM. Also, in experiment [4], the outcome was inactive.

Take `O=S(=O)(c1ccccc1)N(CC(F)(F)F)c1ccc(C(O)(C(F)(F)F)C(F)(F)F)cc1` [T091317]: the half-inhibitory concentration (IC50) in experiment [1] came out at 100 µM. For the same molecule, the outcome in experiment [4] was inactive.

As to `c1cc2cc(c1)Oc1ccc(cc1)CCc1ccccc1-c1ccc(cc1)CC2` [DEOXYRICCARDIN C], the figures for the IC50 in experiment [1], in experiment [2] and in experiment [3] were 18 µM, 7.1 µM and 77 µM, respectively. In experiment [4], the result was inactive.

Turning to `Oc1ccc2c(c1)CCc1ccc(cc1)Oc1cccc(c1)CCc1ccc-2c(O)c1`, the IC50 in experiment [1] is 5.1 µM; in experiment [2], 8.4 µM; in experiment [3] it was 10 µM. For the same molecule, the outcome in experiment [4] was inactive.

Consider `O=C1c2ccccc2C(=O)N1c1ccccc1CCc1ccccc1`, for which the half-inhibitory concentration (IC50) in experiment [1] came to 16.2 µM. Further, the result in experiment [4] was inactive.

Turning to `O=c1c(-c2ccc(O)cc2)coc2cc(O)cc(O)c12` [GENISTEIN], the half-maximal inhibitory concentration (IC50) in experiment [1] was 100 µM; in experiment [2], 31 µM; in experiment [3], 22 µM. Moreover, the result in experiment [4] was inactive.

As for `COc1ccc2cc1Oc1ccc(cc1)CCc1ccccc1-c1ccc(cc1OC)CC2`, the figures for the 50% inhibitory concentration (IC50) in experiment [1], in experiment [2] and in experiment [3] were 42 µM, 2.2 µM and 12 µM, respectively. Besides, the outcome in experiment [4] was inactive.

`COc1ccc2c(c1)CCc1ccc(cc1)Oc1cccc(c1)CCc1ccc-2c(OC)c1`: the IC50 in experiment [1] was more than 30 µM; in experiment [2] it was 25 µM; in experiment [3] it was 46 µM. The outcome in experiment [4] was inactive.

For the molecule `COc1ccc2c(c1)CCc1ccc(cc1)Oc1cc(ccc1OC)CCc1ccc-2c(OC)c1`, the half-maximal inhibitory concentration (IC50) in experiment [1] stood at 49 µM; in experiment [2], 2 µM; in experiment [3], 14 µM. In experiment [4], the result was inactive.

Consider `COc1ccc2cc1Oc1ccc(cc1)CCc1ccccc1-c1ccc(cc1)CC2`, for which the values for the IC50 in experiment [1], in experiment [2] and in experiment [3] were more than 100 µM, 7.6 µM and 41 µM, respectively. For the same molecule, the outcome in experiment [4] was inactive.

Values taken from ChEMBL document CHEMBL1144755, “Co-existence of alpha-glucosidase-inhibitory and liver X receptor-regulatory activities and their separation by structural development” (Bioorg Med Chem, 2008).
